The results in this text go back to patent publication US20180147196A1, “PYRIDIN-3-YL ACETIC ACID DERIVATIVES AS INHIBITORS OF HUMAN IMMUNODEFICIENCY VIRUS REPLICATION” (priority 2015, published 2018).

SMILES strings stand for the structures. Read-outs that look alike come from different tables or passages of the source. Where only a bound is given, the exact number is not on record here.

The assay concerns NL-RLuc virus. The assay can be described thus: Inhibition of HIV replication (NL-RLuc virus in MT-2 cells, luciferase readout). Type of assay: cell-based. To be noted: Human immunodeficiency virus 1, MT2, 120 h. The source says: Inhibition of HIV replication: A recombinant NL-RLuc proviral clone was constructed in which a section of the nef gene from NL4-3 was replaced with the Renilla Luciferase gene. This virus is fully infectious and can undergo multiple cycles of replication in cell culture. In addition, the luciferous reporter provides a simple and easy method for quantitating the extent of virus growth and consequently, the antiviral activity of test compounds. The plasmid pNLRLuc contains the proviral NL-Rluc DNA cloned into pUC18 at the Pvull site. The NL-RLuc virus was prepared by transfection of 293T cells with the plasmid pNLRLuc. Transfections were performed using the LipofectAMINE PLUS kit from Invitrogen (Carlsbad, Calif.) according to the manufacturer and the virus generated was titered in MT-2 cells. For susceptibility analyses, the titrated virus was used to infect MT-2 cells in the presence of compound, and after 5 days of incubation, cells were processed and quantitated for virus growth by the amount of expressed luciferase. Assay media was RPMI 1640 supplemented with 10% heat inactivated fetal bovine serum (FBS), 100 units/ml penicillin G/100 units/ml streptomycin, 10 mM HEPES buffer pH 7.55 and 2 mM L-glutamine. The results from at least 2 experiments were used to calculate the EC50 values. Luciferase was quantitated using the Dual Luciferase kit from Promega (Madison, Wis.). Susceptibility of viruses to compounds was determined by incubation in the presence of serial dilutions of the compound. The 50% effective concentration (EC50) was calculated by using the exponential form of the median effect equation where (Fa)=1/[1+(ED50/drug conc.)^m] (Johnson V A, Byington R T. Infectivity Assay. In Techniques in HIV Research. ed. Aldovini A, Walker BD. 71-76. New York: Stockton Press.1990). Activity equal to A refers to a compound having an EC50<100 nM, while B and C denote compounds having an EC50 between 100 nM and 1 uM (B) or >1 uM (C).

As for `Cc1nc(C)c([C@H](OC(C)(C)C)C(=O)O)c(N2CCC(C)(C)CC2)c1CCc1ccc(C(F)(F)F)cc1` [Example 8, (S)-2-(tert-Butoxy)-2-(4-(4,4-dimethylpiperidin-1-yl)-2,6-dimethyl-5-(4-(trifluoromethyl)phenethyl)pyridin-3-yl)acetic acid], the EC50 (read-out: Activity) lay within 0.1 to 1 µM. Same read-out and setting: in the case of `Cc1cc(N2CCC(C)(C)CC2)c([C@H](OC(C)(C)C)C(=O)O)c(C)n1` [Example 27, (S)-2-(tert-Butoxy)-2-(4-(4,4-dimethylpiperidin-1-yl)-2,6-dimethylpyridin-3-yl)acetic acid] it was above 1 µM. On to `Cc1nc(C)c([C@H](OC(C)(C)C)C(=O)O)c(N2CCC(C)(C)CC2)c1C1=CCCCC1` [Example 14, (S)-2-(tert-Butoxy)-2-(5-(cyclohex-1-en-1-yl)-4-(4,4-dimethylpiperidin-1-yl)-2,6-dimethylpyridin-3-yl)acetic acid], for which the EC50 reads like this: (read-out: Activity) 0.1 to 1 µM; (read-out: EC50 μM) 0.136 µM. With `Cc1nc(C)c([C@H](OC(C)(C)C)C(=O)O)c(N2CCC(C)(C)CC2)c1/C=C/c1ccc(F)cc1` [Example 3, (S,E)-2-(tert-Butoxy)-2-(4-(4,4-dimethylpiperidin-1-yl)-5-(4-fluorostyryl)-2,6-dimethylpyridin-3-yl)acetic acid], the EC50 (read-out: Activity) was below 0.1 µM. Consider `Cc1nc(C)c([C@H](OC(C)(C)C)C(=O)O)c(N2CCC(C)(C)CC2)c1C` [Example 26, (S)-2-(tert-Butoxy)-2-(4-(4,4-dimethylpiperidin-1-yl)-2,5,6-trimethylpyridin-3-yl)acetic acid], for which the EC50 by setting is: (read-out: Activity) below 0.1 µM; (read-out: EC50 μM) 0.097 µM. Consider `Cc1ncc(C2=CCN(CCCc3ccc(F)cc3)CC2)c(N2CCC(C)(C)CC2)c1[C@H](OC(C)(C)C)C(=O)O` [Example 32, (S)-2-(tert-Butoxy)-2-(4-(4,4-dimethylpiperidin-1-yl)-1′-(3-(4-fluorophenyl)propyl)-6-methyl-1′,2′,3′,6′-tetrahydro-[3,4′-bipyridin]-5-yl)acetic acid], for which the EC50 by setting is: (read-out: Activity) below 0.1 µM; (read-out: EC50 μM) 0.002 µM. For `Cc1nc(C)c([C@H](OC(C)(C)C)C(=O)O)c(N2CCC(C)(C)CC2)c1CCc1ccc(-c2ccccc2)cc1` [Example 6, (S)-2-(5-(2-([1,1′-Biphenyl]-4-yl)ethyl)-4-(4,4-dimethylpiperidin-1-yl)-2,6-dimethylpyridin-3-yl)-2-(tert-butoxy)acetic acid], under “read-out: Activity”, the EC50 is below 0.1 µM.

Consider `Cc1nc(C)c([C@H](OC(C)(C)C)C(=O)O)c(N2CCC(C)(C)CC2)c1C1=CCN(CCCc2ccc(F)cc2)CC1` [Example 23, (S)-2-(tert-Butoxy)-2-(4-(4,4-dimethylpiperidin-1-yl)-1′-(3-(4-fluorophenyl)propyl)-2,6-dimethyl-1′,2′,3′,6′-tetrahydro-[3,4′-bipyridin]-5-yl)acetic acid], for which the EC50 (read-out: Activity) is below 0.1 µM.

Take `Cc1nc(C)c([C@H](OC(C)(C)C)C(=O)O)c(N2CCC(C)(C)CC2)c1C1CC1` [Example 31, (S)-2-(tert-Butoxy)-2-(5-cyclopropyl-4-(4,4-dimethylpiperidin-1-yl)-2,6-dimethylpyridin-3-yl)acetic acid]: the EC50 reads like this: (read-out: Activity) 0.1 to 1 µM; (read-out: EC50 μM) 0.118 µM. Taken in the same sequence, the figures for `Cc1nc(C)c([C@H](OC(C)(C)C)C(=O)O)c(N2CCC(C)(C)CC2)c1C1=CCNCC1` [Example 21, (S)-2-(tert-Butoxy)-2-(4-(4,4-dimethylpiperidin-1-yl)-2,6-dimethyl-1′,2′,3′,6′-tetrahydro-[3,4′-bipyridin]-5-yl)acetic acid] were above 1 µM and 2.21 µM. For `Cc1nc(C)c([C@H](OC(C)(C)C)C(=O)O)c(N2CCC(C)(C)CC2)c1C#CC1(O)CCN(Cc2ccccc2)CC1` [Example 2, (S)-2-(5-((1-Benzyl-4-hydroxypiperidin-4-yl)ethynyl)-4-(4,4-dimethylpiperidin-1-yl)-2,6-dimethylpyridin-3-yl)-2-(tert-butoxy)acetic acid] the same measures were below 0.1 µM and 0.064 µM. On to `Cc1nc(C)c([C@H](OC(C)(C)C)C(=O)O)c(N2CCC(C)(C)CC2)c1CCc1ccccc1` [Example 12, (S)-2-(tert-Butoxy)-2-(4-(4,4-dimethylpiperidin-1-yl)-2,6-dimethyl-5-phenethylpyridin-3-yl)acetic acid], for which the EC50 (read-out: Activity) was in the range of 0.1 to 1 µM. `COC(=O)NC/C=C/c1c(C)nc(C)c([C@H](OC(C)(C)C)C(=O)O)c1N1CCC(C)(C)CC1` [Example 18, (S,E)-2-(tert-Butoxy)-2-(4-(4,4-dimethylpiperidin-1-yl)-5-(3-((methoxycarbonyl)amino)prop-1-en-1-yl)-2,6-dimethylpyridin-3-yl)acetic acid]: the EC50 (read-out: Activity) was 0.1 to 1 µM. For the compound `Cc1nc(C)c([C@H](OC(C)(C)C)C(=O)O)c(N2CCC(C)(C)CC2)c1C1=CCN(CCc2ccc(F)cc2)CC1` [Example 22, (S)-2-(tert-Butoxy)-2-(4-(4,4-dimethylpiperidin-1-yl)-1′-(4-fluorophenethyl)-2,6-dimethyl-1′,2′,3′,6′-tetrahydro-[3,4′-bipyridin]-5-yl)acetic acid], the EC50 (read-out: Activity) fell in the range of 0.1 to 1 µM. Turning to `Cc1nc(C)c([C@H](OC(C)(C)C)C(=O)O)c(N2CCC(C)(C)CC2)c1C1=CCC(C(C)(C)C)CC1` (stereo partly drawn) [Example 15, (2S)-2-(tert-Butoxy)-2-(5-(4-(tert-butyl)cyclohex-1-en-1-yl)-4-(4,4-dimethylpiperidin-1-yl)-2,6-dimethylpyridin-3-yl)acetic acid], the EC50 (read-out: Activity) lay in the range of 0.1 to 1 µM. The same measure, in the same setting: the result for `Cc1nc(C)c([C@H](OC(C)(C)C)C(=O)O)c(N2CCC(C)(C)CC2)c1/C=C/CNC(=O)OCc1ccccc1` [Example 17, (S,E)-2-(5-(3-(((Benzyloxy)carbonyl)amino)prop-1-en-1-yl)-4-(4,4-dimethylpiperidin-1-yl)-2,6-dimethylpyridin-3-yl)-2-(tert-butoxy)acetic acid] reads below 0.1 µM; that for `Cc1nc(C)c([C@H](OC(C)(C)C)C(=O)O)c(N2CCC(C)(C)CC2)c1/C=C/c1ccc(C(F)(F)F)cc1` [Example 7, (S,E)-2-(tert-Butoxy)-2-(4-(4,4-dimethylpiperidin-1-yl)-2,6-dimethyl-5-(4-(trifluoromethyl)styryl)pyridin-3-yl)acetic acid], below 0.1 µM. As for `Cc1nc(C)c([C@H](OC(C)(C)C)C(=O)O)c(N2CCC(C)(C)CC2)c1C1=CCN(C(=O)OC(C)(C)C)CC1` [Example 16, (S)-2-(tert-Butoxy)-2-(1′-(tert-butoxycarbonyl)-4-(4,4-dimethylpiperidin-1-yl)-2,6-dimethyl-1′,2′,3′,6′-tetrahydro-[3,4′-bipyridin]-5-yl)acetic acid], the EC50 (read-out: Activity) was below 0.1 µM. For `Cc1nc(C)c([C@H](OC(C)(C)C)C(=O)O)c(N2CCC(C)(C)CC2)c1/C=C/c1ccc(-c2ccccc2)cc1` [Example 5, (S,E)-2-(5-(2-([1,1′-Biphenyl]-4-yl)vinyl)-4-(4,4-dimethylpiperidin-1-yl)-2,6-dimethylpyridin-3-yl)-2-(tert-butoxy)acetic acid], the EC50 by setting is: (read-out: Activity) below 0.1 µM; (read-out: EC50 μM) 0.035 µM. Regarding `Cc1nc(C)c([C@H](OC(C)(C)C)C(=O)O)c(N2CCC(C)(C)CC2)c1C1=CCN(C(=O)OCc2ccccc2)CC1` [Example 19, (S)-2-(1′-((Benzyloxy)carbonyl)-4-(4,4-dimethylpiperidin-1-yl)-2,6-dimethyl-1′,2′,3′,6′-tetrahydro-[3,4′-bipyridin]-5-yl)-2-(tert-butoxy)acetic acid], the EC50 (read-out: Activity) is below 0.1 µM. In the case of `Cc1nc(C)c([C@H](OC(C)(C)C)C(=O)O)c(N2CCC(C)(C)CC2)c1C#CCOCc1ccccc1` [Example 1, (S)-2-(5-(3-(Benzyloxy)prop-1-yn-1-yl)-4-(4,4-dimethylpiperidin-1-yl)-2,6-dimethylpyridin-3-yl)-2-(tert-butoxy)acetic acid], the EC50 by setting is: (read-out: Activity) 0.1 to 1 µM; (read-out: EC50 μM) 0.282 µM. Consider `COC(=O)N1CC=C(c2c(C)nc(C)c([C@H](OC(C)(C)C)C(=O)O)c2N2CCC(C)(C)CC2)CC1` [Example 20, (S)-2-(tert-Butoxy)-2-(4-(4,4-dimethylpiperidin-1-yl)-1′-(methoxycarbonyl)-2,6-dimethyl-1′,2′,3′,6′-tetrahydro-[3,4′-bipyridin]-5-yl)acetic acid], for which the EC50 (read-out: Activity) is 0.1 to 1 µM. As to `Cc1nc(C)c([C@H](OC(C)(C)C)C(=O)O)c(N2CCC(C)(C)CC2)c1CCc1ccc(F)cc1` [Example 4, (S)-2-(tert-Butoxy)-2-(4-(4,4-dimethylpiperidin-1-yl)-5-(4-fluorophenethyl)-2,6-dimethylpyridin-3-yl)acetic acid], the EC50 (read-out: Activity) is below 0.1 µM.

On to `Cc1nc(C)c([C@H](OC(C)(C)C)C(=O)O)c(N2CCC(C)(C)CC2)c1/C=C/c1ccccc1` [Example 11, (S,E)-2-(tert-Butoxy)-2-(4-(4,4-dimethylpiperidin-1-yl)-2,6-dimethyl-5-styrylpyridin-3-yl)acetic acid], for which the EC50 runs as follows: (read-out: Activity) below 0.1 µM; (read-out: EC50 μM) 0.027 µM.
